Laboratory results from patent US11759462B2, “Spirocyclic compounds as tryptophan hydroxylase inhibitors” (priority 2013, dated 2023).
Where two headings read alike, the source gives them in different places.

Target: T1, Recombinant human TPH1 (MBP tagged) (Homo sapiens, UniProt P17752)
T1 construct: cloning full length human TPH1 cDNA in to a bacterial pMAL-c5E expression vector; made in house; host or cells: E. coli BL21 (DE3)
T1 sequence (P17752 1-444): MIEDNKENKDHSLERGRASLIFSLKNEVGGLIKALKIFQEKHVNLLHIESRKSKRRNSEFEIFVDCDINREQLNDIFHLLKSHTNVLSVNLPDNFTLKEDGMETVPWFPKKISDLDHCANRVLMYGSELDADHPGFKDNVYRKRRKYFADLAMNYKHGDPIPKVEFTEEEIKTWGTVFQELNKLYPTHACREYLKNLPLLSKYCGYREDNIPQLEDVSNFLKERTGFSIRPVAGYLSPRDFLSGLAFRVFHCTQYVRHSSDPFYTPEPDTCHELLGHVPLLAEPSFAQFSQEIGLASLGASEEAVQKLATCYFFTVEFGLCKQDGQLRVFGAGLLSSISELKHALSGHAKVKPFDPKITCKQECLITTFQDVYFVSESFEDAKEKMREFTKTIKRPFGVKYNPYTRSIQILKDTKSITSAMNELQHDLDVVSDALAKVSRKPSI
Assay: TPH1 in vitro inhibition assay (kinetic fluorescence)
Assay type: biochemical
Summary of the method: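 Final mix: 15 nM MBP-TPH1, 30 μM Trp, 36 μM 6-methyltetrahydropterin, 25 μM ferrous ammonium sulfate, 50 mM MES pH 7.1, 1% DMSO, room temperature.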

[1] = read-out: TPH1 Range (TPH1 inhibition IC50)

Row | IC50 [1] [nM] | IC50 (TPH1 Range (TPH1 inhibition IC50)) [nM] | Structure (SMILES)
1 | 50 to 300 |  | Nc1nc(O[C@H](c2ccc(-c3ccc(S(N)(=O)=O)cc3)cc2)C(F)(F)F)cc(N2CCC3(CC2)CN[C@H](C(=O)O)C3)n1 [Example 55dj, (S)-8-(2-amino-6-((R)-2,2,2-trifluoro-1-(4′-sulfamoyl-[1,1′-biphenyl]-4-yl)ethoxy)pyrimidin-4-yl)-2,8-diazaspiro[4.5]decane-3-carboxylic acid]
2 | 50 to 300 |  | COc1ccccc1-c1ccc([C@@H](Oc2cc(N3CCC4(CC3)CN[C@H](C(=O)O)C4)nc(N)n2)C(F)(F)F)cc1 [Example 55ar, (S)-8-(2-amino-6-((R)-2,2,2-trifluoro-1-(2′-methoxy-[1,1′-biphenyl]-4-yl)ethoxy)pyrimidin-4-yl)-2,8-diazaspiro[4.5]decane-3-carboxylic acid]
3 | 300 to 3000 |  | Nc1nc(O[C@H](c2ccc(-c3ccc4ccc(=O)oc4c3)cc2)C(F)(F)F)cc(N2CCC3(CC2)CN[C@H](C(=O)O)C3)n1 [Example 55ae, (S)-8-(2-amino-6-((R)-2,2,2-trifluoro-1-(4-(2-oxo-2H-chromen-7-yl)phenyl)ethoxy)pyrimidin-4-yl)-2,8-diazaspiro[4.5]decane-3-carboxylic acid]
4 |  | < 50 | CSc1ccc2cc(-c3ccc([C@@H](Oc4cc(N5CCC6(CC5)CN[C@H](C(=O)O)C6)nc(N)n4)C(F)(F)F)cc3)ccc2n1 [Example 55ai, (S)-8-(2-amino-6-((R)-2,2,2-trifluoro-1-(4-(2-(methylthio)quinolin-6-yl)phenyl)ethoxy)pyrimidin-4-yl)-2,8-diazaspiro[4.5]decane-3-carboxylic acid]
5 | 50 to 300 |  | COc1ccc(-c2ccc([C@@H](Oc3cc(N4CCC5(CC4)CN[C@H](C(=O)O)C5)nc(N)n3)C(F)(F)F)cc2)cc1 [Example 55aq, (S)-8-(2-amino-6-((R)-2,2,2-trifluoro-1-(4′-methoxy-[1,1′-biphenyl]-4-yl)ethoxy)pyrimidin-4-yl)-2,8-diazaspiro[4.5]decane-3-carboxylic acid]

Second part, the molecule before the results:

Row | Structure (SMILES) | IC50 [1] [nM] | IC50 (TPH1 Range (TPH1 inhibition IC50)) [nM]
6 | Cc1cc(-c2cc(Cl)ccc2[C@@H](Oc2cc(N3CCC4(CC3)CN[C@H](C(=O)O)C4)nc(N)n2)C(F)(F)F)ccc1F [Example 34bd, (S)-8-(2-amino-6-((R)-1-(5-chloro-4′-fluoro-3′-methyl-[1,1′-biphenyl]-2-yl)-2,2,2-trifluoroethoxy)pyrimidin-4-yl)-2,8-diazaspiro[4.5]decane-3-carboxylic acid] | < 50 | 
7 | Cc1ccn(-c2ccc(-c3ccc(C(=O)O)cc3)cc2[C@@H](Oc2cc(N3CCC4(CC3)CN[C@H](C(=O)O)C4)nc(N)n2)C(F)(F)F)n1 [Example 19g, (S)-8-(2-amino-6-((R)-1-(4′-carboxy-4-(3-methyl-1H-pyrazol-1-yl)-[1,1′-biphenyl]-3-yl)-2,2,2-trifluoroethoxy)pyrimidin-4-yl)-2,8-diazaspiro[4.5] decane-3-carboxylic acid] | < 50 | 
8 | COC(=O)c1ccc(-c2ccc([C@@H](Oc3cc(N4CCC5(CC4)CN[C@H](C(=O)O)C5)nc(C)n3)C(F)(F)F)c(-n3ccc(C)n3)c2)cc1OC [Example 29q, (S)-8-(2-methyl-6-((R)-2,2,2-trifluoro-1-(3′-methoxy-4′-(methoxycarbonyl)-3-(3-methyl-1H-pyrazol-1-yl)-[1,1′-biphenyl]-4-yl)ethoxy)pyrimidin-4-yl)-2,8-diazaspiro[4.5]decane-3-carboxylic acid] | < 50 | 
9 | COC(=O)c1ccc(-c2ccc([C@@H](Oc3cc(N4CCC5(CC4)CN[C@H](C(=O)O)C5)nc(N)n3)C(F)(F)F)cc2)cc1OC(C)=O [Example 55ad, (S)-8-(6-((R)-1-(3′-acetoxy-4′-(methoxycarbonyl)-[1,1′-biphenyl]-4-yl)-2,2,2-trifluoroethoxy)-2-aminopyrimidin-4-yl)-2,8-diazaspiro[4.5]decane-3-carboxylic acid] | 50 to 300 | 
10 | Cc1ccn(-c2cc(-c3ccc(C(C)(C)C)cc3)ccc2[C@@H](Oc2cc(N3CCC4(CC3)CN[C@H](C(=O)O)C4)nc(C)n2)C(F)(F)F)n1 [Example 29r, (S)-8-(6-((R)-1-(4′-(tert-butyl)-3-(3-methyl-1H-pyrazol-1-yl)-[1,1′-biphenyl]-4-yl)-2,2,2-trifluoroethoxy)-2-methylpyrimidin-4-yl)-2,8-diazaspiro[4.5]decane-3-carboxylic acid] | < 50 | 
11 | Nc1nc(NCC23CC4CC(CC(C4)C2)C3)cc(N2CCC3(CC2)CN[C@H](C(=O)O)C3)n1 [Example 41c, (3S)-8-(6-(((3S,5S)-adamantan-1-ylmethyl)amino)-2-aminopyrimidin-4-yl)-2,8-diazaspiro[4.5]decane-3-carboxylic acid] | 3000 to 10000 | 
12 | Nc1nc(O[C@H](c2ccc(Cl)cc2-c2cc(C(F)(F)F)cc(C(F)(F)F)c2)C(F)(F)F)cc(N2CCC3(CC2)CN[C@H](C(=O)O)C3)n1 [Example 34bh, (S)-8-(2-amino-6-((R)-1-(5-chloro-3′,5′-bis(trifluoromethyl)-[1,1′-biphenyl]-2-yl)-2,2,2-trifluoroethoxy)pyrimidin-4-yl)-2,8-diazaspiro[4.5]decane-3-carboxylic acid] | 300 to 3000 | 
13 | Nc1cccc(-c2cc(Cl)ccc2[C@@H](Oc2cc(N3CCC4(CC3)CNC(C(=O)O)C4)nc(N)n2)C(F)(F)F)c1 (stereo partly drawn) [Example 34f, 8-(2-amino-6-((R)-1-(3′-amino-5-chloro-[1,1′-biphenyl]-2-yl)-2,2,2-trifluoroethoxy)pyrimidin-4-yl)-2,8-diazaspiro[4.5]decane-3-carboxylic acid] | 50 to 300 | 
14 | Cc1cc(C)cc(-c2cc(Cl)ccc2[C@@H](Oc2cc(N3CCC4(CC3)CN[C@H](C(=O)O)C4)nc(N)n2)C(F)(F)F)c1 [Example 34ba, (S)-8-(2-amino-6-((R)-1-(5-chloro-3′,5′-dimethyl-[1,1′-biphenyl]-2-yl)-2,2,2-trifluoroethoxy)pyrimidin-4-yl)-2,8-diazaspiro[4.5]decane-3-carboxylic acid] | < 50 | 
15 | CN1CCN(c2cccc(-c3cc(Cl)ccc3[C@@H](Oc3cc(N4CCC5(CC4)CN[C@H](C(=O)O)C5)nc(N)n3)C(F)(F)F)c2)C1=O [Example 34p, (S)-8-(2-amino-6-((R)-1-(5-chloro-3′-(3-methyl-2-oxoimidazolidin-1-yl)-[1,1′-biphenyl]-2-yl)-2,2,2-trifluoroethoxy)pyrimidin-4-yl)-2,8-diazaspiro[4.5]decane-3-carboxylic acid] | 50 to 300 | 
16 | Cc1ccn(-c2cc(-c3ccc(F)c(C)c3)ccc2[C@@H](Oc2cc(N3CCC4(CC3)CN[C@H](C(=O)O)C4)nc(N)n2)C(F)(F)F)n1 [Example 1ba, (S)-8-(2-amino-6-((R)-2,2,2-trifluoro-1-(4′-fluoro-3′-methyl-3-(3-methyl-1H-pyrazol-1-yl)-[1,1′-biphenyl]-4-yl)ethoxy)pyrimidin-4-yl)-2,8-diazaspiro[4.5]decane-3-carboxylic acid] | < 50 | 
17 | Nc1nc(O[C@H](c2ccc(Cl)cc2-c2ccccc2N)C(F)(F)F)cc(N2CCC3(CC2)CNC(C(=O)O)C3)n1 (stereo partly drawn) [Example 34d, 8-(2-amino-6-((R)-1-(2′-amino-5-chloro-[1,1′-biphenyl]-2-yl)-2,2,2-trifluoroethoxy)pyrimidin-4-yl)-2,8-diazaspiro[4.5]decane-3-carboxylic acid] | 50 to 300 | 
